The test system of one test is SARS-CoV-2 variant Delta. In words: microbe, parasite or virus in culture. It is filed as cell-based. The settings on record: Severe acute respiratory syndrome coronavirus 2; n = 6.
Another test deals with SARS-CoV-2 variant Beta. Description: microbe, parasite or virus in culture. The format is cell-based. The settings on record: Severe acute respiratory syndrome coronavirus 2; n = 6.
For test [1], the system named is SARS-CoV-2 variant Omicron. In words: microbe, parasite or virus in culture. It is filed as cell-based. The settings on record: Severe acute respiratory syndrome coronavirus 2; n = 6.
The next test concerns SARS-CoV-2 variant Alpha. In words: microbe, parasite or virus in culture. The settings on record: Severe acute respiratory syndrome coronavirus 2; n = 6. The format is cell-based.
A further test has as its system Omicron variant. In words: Cytopathic effect (CPE) inhibition assay in Vero E6 cells. The format is cell-based, SARS-CoV-2.
Test [2] relates to four SARS-CoV-2 variants of concern (VOCs), including Alpha, Beta, Delta and Omicron. The format is cell-based. The settings on record: at 200 nM.

Structures are written as SMILES. Some results are limits rather than exact numbers.

By EC50 is commonly meant the midpoint of the concentration-response curve. A higher EC50 goes with a less potent agent. On to `CCC(CC)COC(=O)[C@H](C)N[P@](=O)(OC[C@H]1O[C@@](C#N)(c2ccc3c(N)ncnn23)[C@H](O)[C@@H]1O)Oc1ccccc1` [Remdesivir], for which the EC50 is 938 nM with SARS-CoV-2 variant Delta, 495 nM in the test on SARS-CoV-2 variant Beta, 615 nM in test [1] and 609 nM in the test on SARS-CoV-2 variant Alpha.

Regarding `COc1ccc(C(=O)Nc2cccc(C(F)(F)F)c2)cc1Nc1nc(-c2cccnc2)c2[nH]ccc2n1` [XMU-MP-7], the concentration for a half-maximal effect (EC50) in the test with SARS-CoV-2 variant Delta was under 6.9 nM; with SARS-CoV-2 variant Beta, 12.4 nM; in test [1], under 6.9 nM; in the test on SARS-CoV-2 variant Alpha, under 6.9 nM. Further, the “rescue of cytopathic effect” value in the test with Omicron variant is reported as “significantly rescued the cytopathic effects”. In addition, the viral inhibition entry in test [2] was “complete viral inhibition”.

Regarding `Cc1cccc(/C=N/Nc2cc(N3CCOCC3)nc(OCCc3ccccn3)n2)c1` [Apilimod], the half-maximal effective concentration (EC50) (in the test with SARS-CoV-2 variant Delta; with SARS-CoV-2 variant Beta; in test [1]; with SARS-CoV-2 variant Alpha) was under 6.9 nM each time. The “rescue of cytopathic effect” value in the test with Omicron variant is “significantly rescued the cytopathic effects”.

Source of the values: article PMC9127493 (Signal Transduction and Targeted Therapy, 2022).
